Consider 3 compounds from patent US9605384B2, “Hydrophobic paper, cardboard, and packaging” (STL SUSTAINABLE TECHNOLOGIES, LLC, priority 2010, dated 2017).

The structures appear in SMILES notation. “Also recorded” adds a separate entry of the source.

A short description of data set [1]: Solubility / miscibility in water. It counts as physicochemical.
Data set [2] is described as follows: Stability of halosilane in saturated aqueous salt solution. It counts as physicochemical. Particulars: halosilane added to saturated aqueous salt solution. On the procedure: After cooling to room temperature, 25 ml of the saturated salt solution was added to a 50 ml beaker. To this, 1.2 ml of methyltrichlorosilane was slowly added and stirred into the saturated water. […] A piece of maple wood was added to the solution and vigorously stirred. The dissolved methyltrichlorosilane reacted with the wood and produced hydrochloric acid (HCl) gas as a by-product. There was a slight exotherm observed. After 2 minutes, the wood was removed from the water solution and air-dried. […] The water remained tightly beaded up and gradually evaporated after 30 minutes.

`CCCCCCCC[Si](OCC)(OCC)OCC` [n-octyltriethoxysilane]: the miscibility with water result in data set [1] is “not very miscible at any concentration”.
Regarding `C[Si](Cl)(Cl)Cl` [methyltrichlorosilane], the “reaction with water of the saturated salt solution” value in data set [2] was “did not react with the water; also recorded: no reaction; also recorded: No exotherm or reaction was observed”.
With `CO[Si](C)(OC)OC` [methyltrimethoxysilane], the miscibility with water result in data set [1] is “readily miscible with water”.
